The subject of one assay is Nalm6. The assay is described as follows: Cytotoxicity (viable cells) in Nalm6. In kind it is cell-based. The settings on record: Homo sapiens, NALM-6; Table 1; 48 h; read-out: IC50 in cancer cell lines, Nalm6. The protocol: (§1) The compounds of the present invention were screened initially in leukemic and cervical cancer cell lines (Table 1). […] In cervical cancer cell line HeLa, IC50 was 5 and 2 μM, respectively for SCR116 and SCR132 (FIG. 5A-B).
(§2) Ligase IV specificity of the compounds of the present invention inside the cells were also determined using Ligase IV knock out (KO) cell line N114 compared to the wild type Nalm6 (Table 2, FIGS. 5C, D, E and F). […] Table 1 showing IC50 of SCR7 derivatives in cancer cell lines Nalm6 and HeLa. IC50 was calculated using GraphPad Prism software from the percentage of viable cells following treatment with the compounds at 48 h. Table 2 showing IC50 of SCR116 and SCR132 in a panel of 16 cancer cell lines.

Another assay relates to HeLa. The assay is described as follows: Cytotoxicity (viable cells) in HeLa. In kind it is cell-based. The settings on record: Homo sapiens, HeLa, 48 h, Table 1; 48 h; read-out: IC50 in cancer cell lines, HeLa. The procedure: as §1, §2
Assay [1] deals with Ligase IV knock out (KO) cell line N114. The settings on record: Vartak et al. 2018; cited from earlier work.
The subject of a further assay is rat testicular extracts. The assay is described as follows: Inhibition of end joining of rat testicular extracts (NHEJ). In kind it is biochemical. The settings on record: 500 μM; rat testicular extract. The procedure: The compounds of the present invention were tested for their effects on inhibition of DNA end joining reactions using rat tissue extracts and purified DNA Ligase IV/XRCC4. Rat testicular extracts were prepared from testes of 4-6 week old male Wistar rats, Rattus norvegicus using ammonium sulphate precipitation method. To determine end joining of cell-free extracts, radiolabeled double-stranded (ds) oligomeric DNA substrate was incubated with rat testicular extract at 25° C. in suitable NHEJ buffer. Extracts were incubated for 30 min with the compounds of Formula I (01-41, 500 μM) as prepared in Example 1, and then radioactive DNA substrate was added to the reaction mixture and incubated for 1 h at 25° C. Reactions were stopped using EDTA, and products were purified using phenol: chloroform extraction and loaded on denaturing polyacrylamide gel. […] Joining efficiency was calculated using the intensity of product bands (150 bp or higher) in individual lanes in Multi Gauge software as compared to control (lanes 2,3). Lane 1 denotes radioactive substrate in absence of protein or inhibitor, while M denotes radiolabeled 50 bp DNA ladder.
(§3) Effects of these compounds on NHEJ and Ligase IV mediated joining were evaluated (FIG. 4A-K). The reactions were terminated by EDTA (10 mM), products were purified using phenol/chloroform, precipitated with chilled ethanol and glycogen, and resolved on 8% denaturing PAGE. The gel was dried, exposed, and signal was detected using phosphor Imager FLA9000 (Fuji, Japan), and quantified in MultiGauge software expressed as Photo Stimulated Luminescence Units (PSLU). Inhibition of end joining was reported at 200 μM and 100 μM, respectively for SCR116 and SCR132 (FIGS. 4A, B, C and D), with >50% inhibition at 200 and 100 μM concentrations, respectively. […] FIG. 4K depict the purification profile of Ligase IV and XRCC4. Further FIGS. 4L-M represent inhibition of end joining catalysed by (FIG. 4L) purified Ligase III/XRCCI in presence of SCR116 and SCR132 (50, 100, 200, 500, 1000 μM) and (FIG. 4M) by purified Ligase I in presence of increasing concentrations of SCR116 and SCR132 (10, 50, 100, 200, 500, 1000 μM).

The target in a further assay is T1, DNA Ligase IV/XRCC4 (Homo sapiens, UniProt P49917).
T1 construct: made in house; host or cells: bacteria
T1 sequence (P49917 whole entry): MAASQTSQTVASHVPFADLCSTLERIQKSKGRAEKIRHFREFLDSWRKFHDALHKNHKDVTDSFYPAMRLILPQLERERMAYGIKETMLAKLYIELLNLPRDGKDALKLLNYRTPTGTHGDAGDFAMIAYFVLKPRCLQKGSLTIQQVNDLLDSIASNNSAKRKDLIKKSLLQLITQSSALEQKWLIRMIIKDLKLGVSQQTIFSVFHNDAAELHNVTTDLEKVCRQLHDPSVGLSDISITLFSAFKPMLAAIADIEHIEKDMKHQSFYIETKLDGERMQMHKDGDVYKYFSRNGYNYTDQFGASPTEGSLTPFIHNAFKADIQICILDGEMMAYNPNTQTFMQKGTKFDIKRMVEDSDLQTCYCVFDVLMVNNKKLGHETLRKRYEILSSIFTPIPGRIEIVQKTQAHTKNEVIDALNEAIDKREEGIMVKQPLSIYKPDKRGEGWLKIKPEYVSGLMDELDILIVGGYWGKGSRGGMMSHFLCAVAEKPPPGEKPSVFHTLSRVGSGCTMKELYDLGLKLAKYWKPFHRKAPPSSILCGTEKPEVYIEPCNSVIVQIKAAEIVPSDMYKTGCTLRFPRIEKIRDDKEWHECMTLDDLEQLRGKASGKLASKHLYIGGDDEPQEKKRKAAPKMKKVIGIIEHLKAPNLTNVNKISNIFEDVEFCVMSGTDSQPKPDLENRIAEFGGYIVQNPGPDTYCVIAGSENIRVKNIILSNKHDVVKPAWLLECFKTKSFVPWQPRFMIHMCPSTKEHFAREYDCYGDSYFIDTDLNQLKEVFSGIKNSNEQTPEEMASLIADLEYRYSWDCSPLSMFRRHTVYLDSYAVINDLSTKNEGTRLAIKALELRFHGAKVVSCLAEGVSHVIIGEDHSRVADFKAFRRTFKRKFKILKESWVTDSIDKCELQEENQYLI
T1 sequence (Q13426 whole entry partner): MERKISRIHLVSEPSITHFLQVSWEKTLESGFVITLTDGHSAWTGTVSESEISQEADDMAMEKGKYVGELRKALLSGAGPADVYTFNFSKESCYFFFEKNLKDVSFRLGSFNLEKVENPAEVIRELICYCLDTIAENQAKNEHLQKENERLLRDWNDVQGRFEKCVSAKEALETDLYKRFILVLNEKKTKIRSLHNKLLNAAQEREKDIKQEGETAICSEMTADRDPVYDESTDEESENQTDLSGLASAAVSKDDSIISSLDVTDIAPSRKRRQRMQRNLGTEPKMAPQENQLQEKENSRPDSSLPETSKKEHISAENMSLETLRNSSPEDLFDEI
Kind of assay: Inhibition of end joining by purified DNA Ligase IV/XRCC4. In kind it is biochemical. The settings on record: 200 μM; purified Ligase IV/XRCC4. The protocol:
The compounds of Formula I were evaluated for their specific inhibition activity towards enzyme DNA Ligase IV. DNA Ligase IV/XRCC4 was purified from bacteria using Ni-NTA column (FIG. 2A), and used for evaluation of inhibition of end joining of the compounds (01-41) at 200 μM (FIGS. 2B, C and D). The compounds were incubated with purified Ligase IV/XRCC4 in suitable NHEJ buffer at 25° C. for 30 min, followed by addition of radiolabeled DNA, and further incubation for 1 h at 25° C. Products were purified using phenol: chloroform and run on denaturing PAGE.
as §3

The term IC50 denotes the midpoint of a concentration-inhibition curve. In the case of `Nc1nc(S)nc(O)c1/N=C/c1cccs1` [Compound 01, (E)-6-amino-2-mercapto-5-((thiophen-2-ylmethylene)amino)pyrimidin-4-ol], the IC50 was 23.3 µM with Nalm6 and 17.7 µM with HeLa.
For the molecule `O=c1[nH]c(=S)[nH]c2nc(-c3ccccc3)c(-c3ccccc3)nc12` [SCR7-pyrazine], the “Effect in KO in absence of Ligase IV” value in assay [1] is “nonspecific effects”.
Regarding `Nc1nc(S)nc(O)c1/N=C/c1ccc(Br)s1` [Compound 35, (E)-6-amino-5-(((5-bromothiophen-2-yl)methylene)amino)-2-mercaptopyrimidin-4-ol], the IC50 stood at 6.87 µM in the assay on Nalm6 and 18.4 µM with HeLa.
Take `Nc1nc(S)nc(O)c1/N=C/c1ccnc(Cl)c1` [Compound 31, (E)-6-amino-5-(((2-chloropyridin-4-yl)methylene)amino)-2-mercaptopyrimidin-4-ol]: the IC50 in the assay on Nalm6 is 4.04 µM; with HeLa it was 6.95 µM. Also, the “Inhibition of end joining (no joined product observed)” value with rat testicular extracts was “showed inhibition of end joining”.
With `Nc1nc(S)nc(O)c1/N=C/c1ncc[nH]1` [Compound 04, (E)-5-(((1H-imidazol-2-yl)methylene)amino)-6-amino-2-mercaptopyrimidin-4-ol], the concentration for half-maximal inhibition (IC50) in the assay with Nalm6 worked out at 29.7 µM; with HeLa, 95 µM.
As to `COc1cc(/C=N/c2c(N)nc(S)nc2O)ccc1O` [Compound 39, (E)-6-amino-5-((4-hydroxy-3-methoxybenzylidene)amino)-2-mercaptopyrimidin-4-ol], the 50% inhibitory concentration (IC50) in the assay on Nalm6 was 33.6 µM; in the assay with HeLa, 43.2 µM.
As for `Nc1nc(S)nc(O)c1/N=C/c1ccc2ccccc2n1` [Compound 38, (E)-6-amino-2-mercapto-5-((quinolin-2-ylmethylene)amino)pyrimidin-4-ol], the IC50 in the assay with Nalm6 was 25.5 µM; with HeLa, 45.8 µM.
Turning to `Nc1nc(S)nc(O)c1/N=C/c1cncc2ccccc12` [Compound 05, 6-amino-5-{[(E)-isoquinolin-4-ylmethylidene]amino}-2-mercaptopyrimidin-4-ol], the IC50 in the assay on Nalm6 is 18.2 µM; in the assay on HeLa, 11.9 µM.
Taken in the same sequence, the figures for `Nc1nc(S)nc(O)c1/N=C/c1cccnc1` [Compound 07, (E)-6-amino-2-mercapto-5-((pyridin-3-ylmethylene)amino)pyrimidin-4-ol] were 26.6 µM and 28.2 µM.
Taken in the same sequence, the figures for `CN(C)c1ccc(/C=N/c2c(N)nc(S)nc2O)cc1` [Compound 37, (E)-6-amino-5-((4-(dimethylamino)benzylidene)amino)-2-mercaptopyrimidin-4-ol] were 15.2 µM and 47.8 µM.
On to `CC(=O)OCc1ccc(/C=N/c2c(N)nc(S)nc2O)o1` [Compound 15, (E)-(5-(((4-amino-6-hydroxy-2-mercaptopyrimidin-5-yl)imino)methyl)furan-2-yl)methylacetate], for which the IC50 amounted to 29.8 µM in the assay with Nalm6 and 79.8 µM with HeLa. Besides, the “Inhibition of end joining compared with control” value on DNA Ligase IV/XRCC4 is “significant inhibition of end joining”. Besides, in the assay with rat testicular extracts, the “Inhibition of end joining (no joined product observed)” value is given as “showed inhibition of end joining”.
As to `Nc1nc(S)nc(O)c1/N=C/c1ccncc1F` [Compound 33, (E)-6-amino-5-(((3-fluoropyridin-4-yl)methylene)amino)-2-mercaptopyrimidin-4-ol], the values for the IC50 in the assay on Nalm6 and with HeLa were 2.24 µM and 20.8 µM, respectively.
For `Nc1nc(S)nc(O)c1/N=C/c1nccs1` [Compound 13, (E)-6-amino-2-mercapto-5-((thiazol-2-ylmethylene)amino)pyrimidin-4-ol] the same measures were 25.6 µM and 133 µM.
As to `Nc1nc(S)nc(O)c1/N=C/c1ccccc1O` [Compound 06, (E)-6-amino-5-((2-hydroxybenzylidene)amino)-2-mercaptopyrimidin-4-ol], the results for the IC50 in the assay on Nalm6 and in the assay on HeLa were 19.4 µM and 17.5 µM, respectively. The “Inhibition of end joining (no joined product observed)” value with rat testicular extracts was “showed inhibition of end joining”.
For the molecule `Nc1nc(S)nc(O)c1/N=C/c1cc(F)c(O)c(F)c1` [Compound 41, (E)-6-amino-5-((3,5-difluoro-4-hydroxybenzylidene)amino)-2-mercaptopyrimidin-4-ol], the figures for the IC50 with Nalm6 and in the assay on HeLa were 28.8 µM and 29.2 µM, respectively.
Turning to `Nc1nc(S)nc(O)c1/N=C/c1ccc[nH]1` [Compound 12, (E)-5-(((1H-pyrrol-2-yl)methylene)amino)-6-amino-2-mercaptopyrimidin-4-ol], the IC50 with Nalm6 was 29.5 µM; in the assay on HeLa it was 48.5 µM. The “Inhibition of end joining compared with control” value at DNA Ligase IV/XRCC4 is given as “significant inhibition of end joining”. In addition, the “Inhibition of end joining (no joined product observed)” value with rat testicular extracts is recorded as “showed inhibition of end joining”.
Consider `Nc1nc(S)nc(O)c1/N=C/c1cc(Br)ccc1O` [Compound 40, (E)-6-amino-5-((5-bromo-2-hydroxybenzylidene)amino)-2-mercaptopyrimidin-4-ol], for which the results for the IC50 in the assay with Nalm6 and in the assay with HeLa were 12.6 µM and 18.3 µM, respectively. In the assay on rat testicular extracts, the “Inhibition of end joining (no joined product observed)” value is on record as “showed inhibition of end joining”.
On to `N#Cc1ccc(/C=N/c2c(N)nc(S)nc2O)cc1` [Compound 36, (E)-4-(((4-amino-6-hydroxy-2-mercaptopyrimidin-5yl)imino)methyl)benzonitrile], for which the values for the IC50 in the assay with Nalm6 and in the assay on HeLa were 2.88 µM and 27.2 µM, respectively.
For `Nc1nc(S)nc(O)c1/N=C/c1cccc2ccccc12` [Compound 17, (E)-6-amino-2-mercapto-5-((naphthalen-1-ylmethylene)amino)pyrimidin-4-ol], the values for the IC50 in the assay with Nalm6 and with HeLa were 29.7 µM and 29.5 µM, respectively.
As for `N#Cc1ccc(/C=N/c2c(N)nc(S)nc2O)s1` [Compound 34, (E)-5-(((4-amino-6-hydroxy-2-mercaptopyrimidin-5-yl)imino)methyl)thiophene-2-carbonitrile], the values for the IC50 in the assay on Nalm6 and with HeLa were 0.95 µM and 41.4 µM, respectively.
